How the values were obtained:
HiBit-BRM fusion protein = molecular target: T1, HiBit-BRM fusion protein (Homo sapiens, UniProt P51531); experiment: HiBiT-BRM cell-based degradation assay (Nano-Glo HiBiT Lytic Detection, 24 h); settings: stable HeLa cell line expressing HiBiT-BRM; for DC50: read-out: BRM HiBit Degradation IC50
T1 construct: expressed in transfected cells
Procedure: (§1) Procedure: A stable HeLa cell line expressing HiBiT-BRM was generated. On day 0, 5000 cells were seeded in 40 μL of media into each well of 384-well cell culture plates. On day 1, cells were treated with 120 nL DMSO or 120 nL of 3-fold serially DMSO-diluted compounds (10 points in duplicate with 30 μM as final top dose). Subsequently plates were incubated for 24 h in a standard tissue culture incubator and equilibrated at room temperature for 15 minutes. Nano-Glo HiBiT Lytic Detection System (Promega N3050) reagent was freshly prepared and 20 ul was added to each well. Upon addition of this LgBit-containing reagent, the HiBiT and LgBiT proteins associate to form the luminescent NanoBiT Iuciferase. The plates were shaken for 10 minutes at room temperature and the bioluminescence read using an EnVision plate reader (PerkinElmer).
(§2) The degradation % was calculated using the following formula: % degradation=100%-100%×(LumSample−LumLC)/(LumHC−LumLC). DMSO treated cells are employed as High Control (HC) and 2 μM of a known BRM/BRG1 degrader standard treated cells are employed as Low Control (LC).

[1] = molecular target: T2, HiBit-BRG1 fusion protein (Homo sapiens, UniProt P51532); experiment: HiBiT-BRG1 cell-based degradation assay (Nano-Glo HiBiT Lytic Detection, 24 h); settings: stable HeLa cell line expressing HiBit-BRG1 and LgBit; for Dmax: read-out: BRG1 HiBit Degradation Maximum (%); for DC50: read-out: BRMG1 HiBit Degradation IC50
T2 construct: expressed in transfected cells
T2 sequence (P51532 whole entry, the tested form may be a part): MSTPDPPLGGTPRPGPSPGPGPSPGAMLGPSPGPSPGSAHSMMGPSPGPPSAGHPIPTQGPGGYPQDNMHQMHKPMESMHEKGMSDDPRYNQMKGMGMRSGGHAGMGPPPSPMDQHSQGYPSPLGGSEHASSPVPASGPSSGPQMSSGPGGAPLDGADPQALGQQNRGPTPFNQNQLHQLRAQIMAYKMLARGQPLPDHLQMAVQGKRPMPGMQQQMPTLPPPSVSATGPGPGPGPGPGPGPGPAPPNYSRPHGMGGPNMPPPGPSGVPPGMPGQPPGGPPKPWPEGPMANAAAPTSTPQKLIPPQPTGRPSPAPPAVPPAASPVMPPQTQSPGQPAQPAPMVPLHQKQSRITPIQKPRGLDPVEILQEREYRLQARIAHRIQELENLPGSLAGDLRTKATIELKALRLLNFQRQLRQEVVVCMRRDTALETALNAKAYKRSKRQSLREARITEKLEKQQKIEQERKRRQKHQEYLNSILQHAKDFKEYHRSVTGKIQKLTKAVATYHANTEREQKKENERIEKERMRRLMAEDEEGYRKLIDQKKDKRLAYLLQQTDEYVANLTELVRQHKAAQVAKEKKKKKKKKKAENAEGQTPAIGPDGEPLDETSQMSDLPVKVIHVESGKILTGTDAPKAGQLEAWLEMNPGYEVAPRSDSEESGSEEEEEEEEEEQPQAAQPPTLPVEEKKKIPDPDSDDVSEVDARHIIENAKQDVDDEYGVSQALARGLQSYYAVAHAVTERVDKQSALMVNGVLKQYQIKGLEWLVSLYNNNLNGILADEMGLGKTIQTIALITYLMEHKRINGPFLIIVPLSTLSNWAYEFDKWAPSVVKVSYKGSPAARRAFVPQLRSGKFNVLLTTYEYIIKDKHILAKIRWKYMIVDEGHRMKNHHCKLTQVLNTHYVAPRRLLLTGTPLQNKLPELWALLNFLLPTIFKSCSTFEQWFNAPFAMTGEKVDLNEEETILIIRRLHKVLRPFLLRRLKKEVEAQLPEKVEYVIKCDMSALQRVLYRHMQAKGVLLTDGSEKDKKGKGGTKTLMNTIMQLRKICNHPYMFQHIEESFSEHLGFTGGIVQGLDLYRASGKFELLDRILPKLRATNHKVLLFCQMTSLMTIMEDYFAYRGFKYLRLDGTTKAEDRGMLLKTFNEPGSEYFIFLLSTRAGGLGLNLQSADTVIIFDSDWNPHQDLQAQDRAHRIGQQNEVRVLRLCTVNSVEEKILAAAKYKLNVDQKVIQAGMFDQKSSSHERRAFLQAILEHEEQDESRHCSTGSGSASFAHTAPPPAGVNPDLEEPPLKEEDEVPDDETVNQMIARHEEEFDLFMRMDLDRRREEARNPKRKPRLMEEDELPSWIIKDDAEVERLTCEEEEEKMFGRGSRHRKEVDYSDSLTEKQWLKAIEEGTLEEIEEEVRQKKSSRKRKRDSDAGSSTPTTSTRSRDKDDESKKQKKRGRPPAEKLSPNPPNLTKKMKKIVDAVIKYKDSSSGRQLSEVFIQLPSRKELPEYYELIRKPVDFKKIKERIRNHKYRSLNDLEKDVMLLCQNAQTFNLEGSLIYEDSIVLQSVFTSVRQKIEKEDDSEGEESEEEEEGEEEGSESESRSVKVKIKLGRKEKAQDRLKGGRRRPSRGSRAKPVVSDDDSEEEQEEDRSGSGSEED
Procedure: as §1
For measurement of BRG1 degradation, a stable HeLa cell line expressing HiBit-BRG1 and LgBit was generated. The same protocol as above was then followed.
as §2

T1 sequence (P51531 whole entry, the tested form may be a part): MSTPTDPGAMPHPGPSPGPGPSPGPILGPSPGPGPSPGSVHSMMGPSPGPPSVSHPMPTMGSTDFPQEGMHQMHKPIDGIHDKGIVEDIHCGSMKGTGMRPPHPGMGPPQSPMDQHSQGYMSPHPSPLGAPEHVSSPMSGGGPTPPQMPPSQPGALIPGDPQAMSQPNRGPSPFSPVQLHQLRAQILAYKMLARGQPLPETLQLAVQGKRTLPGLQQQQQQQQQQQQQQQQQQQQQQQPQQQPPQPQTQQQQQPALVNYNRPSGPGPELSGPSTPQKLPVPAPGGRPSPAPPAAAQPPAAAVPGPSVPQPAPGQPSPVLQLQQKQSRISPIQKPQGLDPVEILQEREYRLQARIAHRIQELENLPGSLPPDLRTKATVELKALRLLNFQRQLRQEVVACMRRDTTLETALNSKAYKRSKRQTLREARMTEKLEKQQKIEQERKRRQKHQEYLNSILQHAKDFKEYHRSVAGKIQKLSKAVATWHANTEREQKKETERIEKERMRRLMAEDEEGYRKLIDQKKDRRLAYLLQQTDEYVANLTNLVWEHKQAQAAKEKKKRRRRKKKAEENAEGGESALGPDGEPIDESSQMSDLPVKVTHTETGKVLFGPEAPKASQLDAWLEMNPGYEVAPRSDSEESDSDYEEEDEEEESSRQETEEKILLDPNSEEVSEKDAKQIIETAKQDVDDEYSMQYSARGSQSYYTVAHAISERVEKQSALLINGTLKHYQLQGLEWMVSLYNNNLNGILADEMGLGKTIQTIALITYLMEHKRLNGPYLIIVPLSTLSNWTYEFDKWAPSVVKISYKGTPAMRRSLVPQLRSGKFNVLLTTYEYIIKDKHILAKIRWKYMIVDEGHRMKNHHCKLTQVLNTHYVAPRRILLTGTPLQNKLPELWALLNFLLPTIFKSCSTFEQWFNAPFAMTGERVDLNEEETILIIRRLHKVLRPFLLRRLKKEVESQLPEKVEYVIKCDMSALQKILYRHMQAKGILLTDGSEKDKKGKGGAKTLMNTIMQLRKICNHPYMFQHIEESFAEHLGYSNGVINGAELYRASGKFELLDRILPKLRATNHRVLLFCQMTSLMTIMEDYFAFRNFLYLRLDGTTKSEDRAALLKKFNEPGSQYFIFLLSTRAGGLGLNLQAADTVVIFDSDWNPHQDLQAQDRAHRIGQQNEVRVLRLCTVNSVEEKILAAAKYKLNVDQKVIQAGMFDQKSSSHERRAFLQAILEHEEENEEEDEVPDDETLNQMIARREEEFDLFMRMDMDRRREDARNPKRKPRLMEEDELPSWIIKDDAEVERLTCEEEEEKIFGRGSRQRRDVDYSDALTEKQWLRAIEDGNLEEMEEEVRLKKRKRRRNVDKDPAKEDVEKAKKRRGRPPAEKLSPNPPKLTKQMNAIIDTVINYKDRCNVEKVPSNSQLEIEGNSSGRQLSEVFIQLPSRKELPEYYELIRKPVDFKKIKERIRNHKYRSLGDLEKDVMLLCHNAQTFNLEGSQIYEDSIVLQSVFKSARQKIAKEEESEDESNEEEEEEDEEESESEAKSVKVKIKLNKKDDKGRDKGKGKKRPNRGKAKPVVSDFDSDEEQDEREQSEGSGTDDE

Row | DC50 (HiBit-BRM fusion protein) | Dmax [1] | DC50 [1] | SMILES | BRM HiBit Degradation Maximum (%) (HiBit-BRM fusion protein)
1 | < 10 nM | < 50% |  | Cc1ncsc1-c1ccc([C@H](C)NC(=O)[C@@H]2C[C@@H](O)CN2C(=O)[C@@H](c2cc(N3C[C@@H]4[C@H](C3)[C@H]4c3cc4nnc(-c5ccccc5O)cc4s3)no2)C(C)C)cc1 [Compound 70, (2S,4R)-4-hydroxy-1-((2R)-2-(3-((1R,5S)-6-(3-(2-hydroxyphenyl)thieno[3,2-c]pyridazin-6-yl)-3-azabicyclo[3.1.0]hexan-3-yl)isoxazol-5-yl)-3-methylbutanoyl)-N-((S)-1-(4-(4-methylthiazol-5-yl)phenyl)ethyl)pyrrolidine-2-carboxamide] | B (“B” indicates maximum degradation ≥50%)
2 | > 10 nM | < 50% | > 1000 nM | Cc1ncsc1-c1ccc([C@H](C)NC(=O)[C@@H]2C[C@@H](O)CN2C(=O)[C@@H](c2cc(-c3ncc(N4CCC(c5sc6nnc(-c7ccccc7O)cc6c5C)CC4)cn3)no2)C(C)C)cc1 [Compound 36, (2S,4R)-4-hydroxy-1-((R)-2-(3-(5-(4-(3-(2-hydroxyphenyl)-5-methylthieno[2,3-c]pyridazin-6-yl)piperidin-1-yl)pyrimidin-2-yl)isoxazol-5-yl)-3-methylbutanoyl)-N-((S)-1-(4-(4-methylthiazol-5-yl)phenyl)ethyl)pyrrolidine-2-carboxamide] | A (“A” indicates maximum degradation ≥75%)
3 | > 10 nM | > 75% | > 10 nM | Cc1ncsc1-c1ccc([C@H](C)NC(=O)[C@@H]2C[C@@H](O)CN2C(=O)[C@@H](c2cc(-c3ccnc(N4CCC(c5sc6nnc(-c7ccccc7O)cc6c5C)CC4)c3)no2)C(C)C)cc1 [Compound 10, (2S,4R)-4-hydroxy-1-((R)-2-(3-(2-(4-(3-(2-hydroxyphenyl)-5-methylthieno[2,3-c]pyridazin-6-yl)piperidin-1-yl)pyridin-4-yl)isoxazol-5-yl)-3-methylbutanoyl)-N-((S)-1-(4-(4-methylthiazol-5-yl)phenyl)ethyl)pyrrolidine-2-carboxamide] | A (“A” indicates maximum degradation ≥75%)
4 | < 10 nM | > 75% | > 10 nM | Cc1ncsc1-c1ccc([C@H](C)NC(=O)[C@@H]2C[C@@H](O)CN2C(=O)[C@@H](c2cc(N3CC4(CCC(c5sc6nnc(-c7ccccc7O)cc6c5C)CC4)C3)no2)C(C)C)cc1 [Compound 88, (2S,4R)-4-hydroxy-1-((R)-2-(3-(7-(3-(2-hydroxyphenyl)-5-methylthieno[2,3-c]pyridazin-6-yl)-2-azaspiro[3.5]nonan-2-yl)isoxazol-5-yl)-3-methylbutanoyl)-N-((S)-1-(4-(4-methylthiazol-5-yl)phenyl)ethyl)pyrrolidine-2-carboxamide] | A (“A” indicates maximum degradation ≥75%)
5 | < 10 nM | < 50% |  | Cc1ncsc1-c1ccc([C@H](C)NC(=O)[C@@H]2C[C@@H](O)CN2C(=O)[C@@H](c2cc(N3CC4(CC(c5sc6nnc(-c7ccccc7O)cc6c5C5CC5)C4)C3)no2)C(C)C)cc1 [Compound 87, (2S,4R)-1-[(2R)-2-(3-{6-[5-cyclopropyl-3-(2-hydroxyphenyl)thieno[2,3-c]pyridazin-6-yl]-2-azaspiro[3.3]heptan-2-yl}-1,2-oxazol-5-yl)-3-methylbutanoyl]-4-hydroxy-N-[(1S)-1-[4-(4-methyl-1,3-thiazol-5-yl)phenyl]ethyl]pyrrolidine-2-carboxamide] | A (“A” indicates maximum degradation ≥75%)
6 | < 10 nM | > 50% | > 10 nM | Cc1ncsc1-c1ccc([C@H](C)NC(=O)[C@@H]2C[C@@H](O)CN2C(=O)[C@@H](c2cc(N3CC[C@H](c4sc5nnc(-c6ccccc6O)cc5c4C)C3)no2)C(C)C)cc1 [Compound 78, (2S,4R)-4-hydroxy-1-((R)-2-(3-((S)-3-(3-(2-hydroxyphenyl)-5-methylthieno[2,3-c]pyridazin-6-yl)pyrrolidin-1-yl)isoxazol-5-yl)-3-methylbutanoyl)-N-((S)-1-(4-(4-methylthiazol-5-yl)phenyl)ethyl)pyrrolidine-2-carboxamide] | A (“A” indicates maximum degradation ≥75%)

More lines, now with the values behind:

Row | SMILES | DC50 (HiBit-BRM fusion protein) | Dmax [1] | DC50 [1] | BRM HiBit Degradation Maximum (%) (HiBit-BRM fusion protein)
7 | Cc1ncsc1-c1ccc([C@H](C)NC(=O)[C@@H]2C[C@@H](O)CN2C(=O)[C@@H](c2cc(-c3cnc(N4CC[C@@H](c5sc6nnc(-c7ccccc7O)cc6c5C5CC5)C4)nc3)no2)C(C)C)cc1 [Compound 75, (2S,4R)-1-((R)-2-(3-(2-((R)-3-(5-cyclopropyl-3-(2-hydroxyphenyl)thieno [2,3-c]pyridazin-6-yl)pyrrolidin-1-yl)pyrimidin-5-yl)isoxazol-5-yl)-3-methylbutanoyl)-4-hydroxy-N-((S)-1-(4-(4-methylthiazol-5-yl)phenyl)ethyl)pyrrolidine-2-carboxamide] | > 10 nM | < 50% |  | B (“B” indicates maximum degradation ≥50%)
8 | Cc1ncsc1-c1ccc([C@H](C)NC(=O)[C@@H]2C[C@@H](O)CN2C(=O)[C@@H](c2cc(-c3cnc(N4CC[C@@H](c5cc6cc(-c7ccccc7O)nnc6s5)C4)nc3)no2)C(C)C)cc1 (single isomer, unassigned) [Compound 5] | < 10 nM | < 50% | > 1000 nM | A (“A” indicates maximum degradation ≥75%)
9 | Cc1ncsc1-c1ccc([C@H](C)NC(=O)[C@@H]2C[C@@H](O)CN2C(=O)[C@@H](c2cc(-c3cnc(N4CCC(c5sc6nnc(-c7cccc(Cl)c7O)cc6c5C)CC4)nc3)no2)C(C)C)cc1 [Compound 29, (2S,4R)-1-((R)-2-(3-(2-(4-(3-(3-chloro-2-hydroxyphenyl)-5-methylthieno[2,3-c]pyridazin-6-yl)piperidin-1-yl)pyrimidin-5-yl)isoxazol-5-yl)-3-methylbutanoyl)-4-hydroxy-N-((S)-1-(4-(4-methylthiazol-5-yl)phenyl)ethyl)pyrrolidine-2-carboxamide] | > 1000 nM | < 50% | > 1000 nM | C (“C” indicates maximum degradation <50%)
10 | Cc1ncsc1-c1ccc([C@H](C)NC(=O)[C@@H]2C[C@@H](O)CN2C(=O)[C@@H](c2cc(-c3cnc(N4C[C@H]5C[C@@H](C4)[C@@H]5c4cc5cc(-c6ccccc6O)nnc5s4)nc3)no2)C(C)C)cc1 [Compound 18, (2S,4R)-4-hydroxy-1-((R)-2-(3-(2-((1R,5S,6R)-6-(3-(2-hydroxyphenyl)thieno[2,3-c]pyridazin-6-yl)-3-azabicyclo[3.1.1]heptan-3-yl)pyrimidin-5-yl)isoxazol-5-yl)-3-methylbutanoyl)-N-((S)-1-(4-(4-methylthiazol-5-yl)phenyl)ethyl)pyrrolidine-2-carboxamide] | < 10 nM | < 50% | > 1000 nM | A (“A” indicates maximum degradation ≥75%)
11 | Cc1ncsc1-c1ccc([C@H](C)NC(=O)[C@@H]2C[C@@H](O)CN2C(=O)[C@@H](c2cc(-c3cnc(N4C[C@H]5C[C@@H](C4)[C@H]5c4cc5cc(-c6ccccc6O)nnc5s4)nc3)no2)C(C)C)cc1 [Compound 15, (2S,4R)-4-hydroxy-1-((R)-2-(3-(2-((1R,5S,6S)-6-(3-(2-hydroxyphenyl)thieno[2,3-c]pyridazin-6-yl)-3-azabicyclo[3.1.1]heptan-3-yl)pyrimidin-5-yl)isoxazol-5-yl)-3-methylbutanoyl)-N-((S)-1-(4-(4-methylthiazol-5-yl)phenyl)ethyl)pyrrolidine-2-carboxamide] | > 100 nM | < 50% | > 1000 nM | B (“B” indicates maximum degradation ≥50%)
12 | Cc1ncsc1-c1ccc([C@H](C)NC(=O)[C@@H]2C[C@@H](O)CN2C(=O)[C@@H](c2cc(-c3ccnc(N4CCC(c5sc6nnc(-c7ccccc7O)cc6c5C)CC4)n3)no2)C(C)C)cc1 [Compound 58, (2S,4R)-4-hydroxy-1-((R)-2-(3-(2-(4-(3-(2-hydroxyphenyl)-5-methylthieno[2,3-c]pyridazin-6-yl)piperidin-1-yl)pyrimidin-4-yl)isoxazol-5-yl)-3-methylbutanoyl)-N-((S)-1-(4-(4-methylthiazol-5-yl)phenyl)ethyl)pyrrolidine-2-carboxamide] | < 10 nM | > 75% | > 10 nM | A (“A” indicates maximum degradation ≥75%)
13 | Cc1ncsc1-c1ccc([C@H](C)NC(=O)[C@@H]2C[C@@H](O)CN2C(=O)[C@@H](c2cc(-c3cnc(N4CC5(CC(c6cc7nnc(-c8ccccc8O)cc7s6)C5)C4)nc3)no2)C(C)C)cc1 [Compound 17, (2S,4R)-4-hydroxy-1-((R)-2-(3-(2-(6-(3-(2-hydroxyphenyl)thieno[3,2-c]pyridazin-6-yl)-2-azaspiro[3.3]heptan-2-yl)pyrimidin-5-yl)isoxazol-5-yl)-3-methylbutanoyl)-N-((S)-1-(4-(4-methylthiazol-5-yl)phenyl)ethyl)pyrrolidine-2-carboxamide] | < 10 nM | > 75% | > 10 nM | A (“A” indicates maximum degradation ≥75%)

Source: patent US20250304596A1, “PYRAZINE DERIVATIVES AND USES THEREOF” (FOGHORN THERAPEUTICS INC., priority 2022, published 2025)
